In the assay the target is T1, Endothelial lipase (EL) (Homo sapiens, UniProt Q9Y5X9).
T1 construct: HT-1080 cells, which were transformed by RAGE technology (Athersys) to overexpress endogenous EL; endogenous in cells; conditioned medium used as the enzyme source
T1 sequence (Q9Y5X9 21-500): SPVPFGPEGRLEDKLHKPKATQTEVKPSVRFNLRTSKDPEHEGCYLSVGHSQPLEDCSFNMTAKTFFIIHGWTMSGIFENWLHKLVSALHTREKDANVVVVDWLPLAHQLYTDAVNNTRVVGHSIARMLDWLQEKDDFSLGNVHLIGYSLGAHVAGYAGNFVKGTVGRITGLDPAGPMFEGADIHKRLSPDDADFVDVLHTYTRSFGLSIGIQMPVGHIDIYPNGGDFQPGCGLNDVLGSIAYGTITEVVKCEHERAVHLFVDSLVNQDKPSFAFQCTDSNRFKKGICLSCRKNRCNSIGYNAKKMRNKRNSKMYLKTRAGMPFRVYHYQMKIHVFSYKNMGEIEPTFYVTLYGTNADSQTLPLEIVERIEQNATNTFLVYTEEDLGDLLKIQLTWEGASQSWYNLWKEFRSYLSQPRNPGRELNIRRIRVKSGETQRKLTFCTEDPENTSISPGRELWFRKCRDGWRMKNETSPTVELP
In words: Endothelial lipase (EL) enzymatic assay with fluorescent substrate A10070 in DMPG vesicles. The assay is classed as biochemical. The procedure: Endothelial lipase activity was measured using a fluorescent substrate, A10070, (Invitrogen, CA) doped into an artificial vesicle containing DMPG (Avanti Polar Lipids) as the excipient. Vesicles were prepared by combining 285 μL of 1 mM DMPG in a 1:1 mixture of MeOH and CHCl3 with 15 μL of 1 mM A10070 in a 1:1 mixture of MeOH and CHCl3. The mixture was dried under nitrogen and resuspended in 150 μL of 50 mM HEPES pH 8.0 buffer containing 100 mM NaCl and 0.2 mM EDTA. The sample was allowed to sit at rt for 15 min and then was sonicated 3×4 mins on ice with a Branson Sonicator using duty cycle 1. This preparation provides vesicles with a mole fraction of 0.05 for the FRET substrate.
The enzymatic assay was measured using white, opaque 96-well half area plates. Each well contained 60 μL of assay buffer (50 mM HEPES pH 8.0, 50 mM NaCl and 1 mM CaCl2) and 2 ul of a DMSO solution containing compound of interest. Conditioned media obtained from HT-1080 cells, which were transformed by RAGE technology (Athersys) to overexpress endogenous EL, was added and the reaction was allowed to incubate for 20 min at 37° C. with gentle agitation. The reaction was started by the addition of 20 μL of a 1:4 dilution of vesicles. The final total reaction volume was 100 μL. The reaction rates were measured on a Gemini plate reader with an excitation wavelength of 488 nm and an emission of 530 nm. Readings were taken every 20 seconds for 10 min with agitation between each reading. The slope of the linear portion of the readout was used to calculate the rate of the reaction.

Setting [1] is: range observed in the EL assay, read-out: EL IC50 values.
Setting [2] is: conditioned media from HT-1080 cells overexpressing endogenous EL, 20 min preincubation at 37° C., read-out: EL IC50.

Where two headings read alike, the source gives them in different places. Where only a bound is given, the exact number is not on record here.

As usually defined, the IC50 is the concentration that gives 50% inhibition.

For `Nc1c(C(=O)NC2CCCN(c3ncccc3Cl)C2)[nH]c(=O)[nH]c1=O` (stereo not shown) [Example 183, 5-amino-N-(1-(3-chloropyridin-2-yl)piperidin-3-yl)-2,6-dioxo-1,2,3,6-tetrahydropyrimidine-4-carboxamide], under setting [1], the IC50 is at most 10 µM.
In the case of `O=C(N[C@H]1CC[C@@H](c2ccccc2)CC1)c1[nH]c(=O)n(CCCc2ccccc2)c(=O)c1O` [Example 270, 5-Hydroxy-2,6-dioxo-N-(cis-4-phenylcyclohexyl)-1-(3-phenylpropyl)-1,2,3,6-tetrahydropyrimidine-4-carboxamide], the IC50 under setting [1] was at most 10 µM.
For the compound `Nc1c(C(=O)NC2CCCN(c3nccc(C(F)(F)F)n3)C2)[nH]c(=O)[nH]c1=O` (stereo not shown) [Example 184, 5-amino-2,6-dioxo-N-(1-(4-(trifluoromethyl)pyrimidin-2-yl)piperidin-3-yl)-1,2,3,6-tetrahydropyrimidine-4-carboxamide], the IC50 was 5.71 µM under setting [2] and at most 10 µM under setting [1].
Consider `Nc1c(C(=O)N[C@H]2CCCc3c(OCC(F)(F)F)cccc32)[nH]c(=O)[nH]c1=O` [Example 35, (S)-5-amino-2,6-dioxo-N-(5-(2,2,2-trifluoroethoxy)-1,2,3,4-tetrahydronaphthalen-1-yl)-1,2,3,6-tetrahydropyrimidine-4-carboxamide], for which the IC50 under setting [1] was at most 10 µM.
For the compound `Nc1c(C(=O)N[C@@H]2CCCc3c(NS(=O)(=O)c4ccccc4)cccc32)[nH]c(=O)[nH]c1=O` [Example 125, (R)-5-amino-2,6-dioxo-N-(5-(phenylsulfonamido)-1,2,3,4-tetrahydronaphthalen-1-yl)-1,2,3,6-tetrahydropyrimidine-4-carboxamide], the half-maximal inhibitory concentration (IC50) was 0.329 µM under setting [2] and at most 10 µM under setting [1].
With `COc1ccc2c(c1)CC[C@H]2NC(=O)c1[nH]c(=O)[nH]c(=O)c1N` [Example 70, (R)-5-amino-N-(5-methoxy-2,3-dihydro-1H-inden-1-yl)-2,6-dioxo-1,2,3,6-tetrahydropyrimidine-4-carboxamide], under setting [1], the IC50 was at most 10 µM.
Consider `Nc1c(C(=O)N[C@@H]2CCc3c(Oc4ccccc4)cccc32)[nH]c(=O)[nH]c1=O` [Example 88, (R)-5-amino-2,6-dioxo-N-(4-phenoxy-2,3-dihydro-1H-inden-1-yl)-1,2,3,6-tetrahydropyrimidine-4-carboxamide], for which the 50% inhibitory concentration (IC50) under setting [1] was at most 10 µM.
As to `Nc1c(C(=O)N[C@H]2CCc3ccc(-c4ccccc4)cc32)[nH]c(=O)[nH]c1=O` [Example 139, (S)-5-amino-2,6-dioxo-N-(6-phenyl-2,3-dihydro-1H-inden-1-yl)-1,2,3,6-tetrahydropyrimidine-4-carboxamide], the IC50 by setting is: under setting [2], 0.028 µM; under setting [1], at most 10 µM.
As for `CC(C)(O)CNc1c(C(=O)N[C@H]2CC[C@@H](c3ccccc3)CC2)[nH]c(=O)[nH]c1=O` [Example 234, 5-(2-hydroxy-2-methylpropylamino)-2,6-dioxo-N-(cis-4-phenylcyclohexyl)-1,2,3,6-tetrahydropyrimidine-4-carboxamide], the half-inhibitory concentration (IC50) was 0.439 µM under setting [2] and at most 10 µM under setting [1].
For `O=C(N[C@@H]1CC[C@@H](c2ccc(Cl)c(Cl)c2)C1)c1[nH]c(=O)[nH]c(=O)c1O` [Example 251, N-((1R,3R)-3-(3,4-dichlorophenyl)cyclopentyl)-5-hydroxy-2,6-dioxo-1,2,3,6-tetrahydropyrimidine-4-carboxamide], under setting [1], the half-inhibitory concentration (IC50) was at most 10 µM.
In the case of `O=C(NC1CCC(c2cccc(OCc3ccccc3)c2)C1)c1[nH]c(=O)[nH]c(=O)c1O` (stereo not shown) [Example 282, N-(3-(3-(benzyloxy)phenyl)cyclopentyl)-5-hydroxy-2,6-dioxo-1,2,3,6-tetrahydropyrimidine-4-carboxamide], the IC50 under setting [1] is at most 10 µM.
As to `COC(=O)C1CCCCC1NC(=O)c1[nH]c(=O)[nH]c(=O)c1N` (stereo not shown) [Example 56, methyl 2-(5-amino-2,6-dioxo-1,2,3,6-tetrahydropyrimidine-4-carboxamido) cyclohexanecarboxylate], the IC50 under setting [1] was at most 10 µM.
Turning to `Nc1c(C(=O)NC2CCOc3ccccc32)[nH]c(=O)[nH]c1=O` (single isomer, unassigned; enantiomer b) [Example 197, 5-amino-N-(chroman-4-yl)-2,6-dioxo-1,2,3,6-tetrahydropyrimidine-4-carboxamide (Enantiomer B)], under setting [1], the 50% inhibitory concentration (IC50) was at most 10 µM.
Consider `Nc1c(C(=O)NC2CCC(c3cnn(Cc4ccccc4)c3)C2)[nH]c(=O)[nH]c1=O` (stereo not shown) [Example 102, 5-amino-N-(3-(1-benzyl-1H-pyrazol-4-yl)cyclopentyl)-2,6-dioxo-1,2,3,6-tetrahydropyrimidine-4-carboxamide], for which the IC50 under setting [1] was at most 10 µM.
With `Nc1c(C(=O)N[C@@H]2CCc3c2cccc3C(F)(F)F)[nH]c(=O)[nH]c1=O` [Example 14, (R)-5-amino-2,6-dioxo-N-(4-(trifluoromethyl)-2,3-dihydro-1H-inden-1-yl)-1,2,3,6-tetrahydropyrimidine-4-carboxamide], the half-inhibitory concentration (IC50) under setting [2] is 2.78 µM and the IC50 under setting [1] was at most 10 µM.
In the case of `Nc1c(C(=O)N[C@@H]2CCCc3c(Nc4ccccc4)cccc32)[nH]c(=O)[nH]c1=O` [Example 126, (R)-5-amino-2,6-dioxo-N-(5-(phenylamino)-1,2,3,4-tetrahydronaphthalen-1-yl)-1,2,3,6-tetrahydropyrimidine-4-carboxamide], the IC50 under setting [1] is at most 10 µM.
Turning to `O=C(O)Cn1c(=O)[nH]c(C(=O)N[C@H]2CC[C@@H](c3ccccc3)CC2)c(O)c1=O` [Example 267, 2-(5-Hydroxy-2,6-dioxo-4-((cis-4-phenylcyclohexyl)carbamoyl)-2,3-dihydropyrimidin-1(6H)-yl)acetic acid], the IC50 is 1.42 µM under setting [2] and at most 10 µM under setting [1].
Consider `O=C(N[C@H]1CC[C@H](C(=O)Nc2ccccc2)C1)c1[nH]c(=O)[nH]c(=O)c1O` [Example 290, 5-hydroxy-2,6-dioxo-N-((1S,3S)-3-(phenylcarbamoyl)cyclopentyl)-1,2,3,6-tetrahydropyrimidine-4-carboxamide], for which the IC50 under setting [1] is at most 10 µM.
Same read-out and setting: the result for `Nc1c(C(=O)N[C@@H]2CC(c3ccccc3)c3ccccc32)[nH]c(=O)[nH]c1=O` (stereo in doubt) [Example 29, 5-amino-2,6-dioxo-N-((1R,3S)-3-phenyl-2,3-dihydro-1H-inden-1-yl)-1,2,3,6-tetrahydropyrimidine-4-carboxamide] reads at most 10 µM; that for `Nc1c(C(=O)NC2CCCC(c3ccccc3)C2)[nH]c(=O)[nH]c1=O` (single isomer, unassigned) [Example 100, 5-amino-2,6-dioxo-N-(3-phenylcyclohexyl)-1,2,3,6-tetrahydropyrimidine-4-carboxamide], at most 10 µM.
In the case of `COc1ccc2c(c1)[C@H](NC(=O)c1[nH]c(=O)[nH]c(=O)c1O)CCC2` [Example 264, (R)-5-hydroxy-N-(7-methoxy-1,2,3,4-tetrahydronaphthalen-1-yl)-2,6-dioxo-1,2,3,6-tetrahydropyrimidine-4-carboxamide], the concentration for half-maximal inhibition (IC50) under setting [1] was at most 10 µM.
Take `Nc1c(C(=O)N[C@@H]2CCCc3c2cccc3C(F)(F)F)[nH]c(=O)[nH]c1=O` [Example 49, (R)-5-amino-2,6-dioxo-N-(5-(trifluoromethyl)-1,2,3,4-tetrahydronaphthalen-1-yl)-1,2,3,6-tetrahydropyrimidine-4-carboxamide]: the concentration for half-maximal inhibition (IC50) under setting [1] is at most 10 µM.
The same measure, in the same setting: the result for `CC(C)COc1ccc(C2CCC(NC(=O)c3[nH]c(=O)[nH]c(=O)c3N)C2)cc1` (stereo not shown) [Example 145, 5-amino-N-(3-(4-isobutoxyphenyl)cyclopentyl)-2,6-dioxo-1,2,3,6-tetrahydropyrimidine-4-carboxamide] reads at most 10 µM; that for `O=C(Cn1c(=O)[nH]c(C(=O)N[C@H]2CC[C@@H](c3ccccc3)CC2)c(O)c1=O)N[C@H]1CC[C@@H](c2ccccc2)CC1` [Example 268, 5-Hydroxy-2,6-dioxo-1-(2-oxo-2-((cis-4-phenylcyclohexyl)amino)ethyl)-N-(cis-4-phenylcyclohexyl)-1,2,3,6-tetrahydropyrimidine-4-carboxamide], at most 10 µM; that for `COc1ccc(-c2ccc([C@@H]3CC[C@H](NC(=O)c4[nH]c(=O)[nH]c(=O)c4N)C3)cc2)cc1` [Example 168, 5-amino-N-((1S,3R)-3-(4′-methoxybiphenyl-4-yl)cyclopentyl)-2,6-dioxo-1,2,3,6-tetrahydropyrimidine-4-carboxamide], at most 10 µM.
